Columns and labels:
[1] = biological target: T1, UDP-glucuronosyltransferase 2B7 (Homo sapiens, UniProt P16662); test: Activity of human recombinant UGT2B7 expressed in insect cells assessed as enzyme mediated glucuronidation at 500 uM by LC-MS/MS method; format: ADME
T1 sequence (P16662 whole entry): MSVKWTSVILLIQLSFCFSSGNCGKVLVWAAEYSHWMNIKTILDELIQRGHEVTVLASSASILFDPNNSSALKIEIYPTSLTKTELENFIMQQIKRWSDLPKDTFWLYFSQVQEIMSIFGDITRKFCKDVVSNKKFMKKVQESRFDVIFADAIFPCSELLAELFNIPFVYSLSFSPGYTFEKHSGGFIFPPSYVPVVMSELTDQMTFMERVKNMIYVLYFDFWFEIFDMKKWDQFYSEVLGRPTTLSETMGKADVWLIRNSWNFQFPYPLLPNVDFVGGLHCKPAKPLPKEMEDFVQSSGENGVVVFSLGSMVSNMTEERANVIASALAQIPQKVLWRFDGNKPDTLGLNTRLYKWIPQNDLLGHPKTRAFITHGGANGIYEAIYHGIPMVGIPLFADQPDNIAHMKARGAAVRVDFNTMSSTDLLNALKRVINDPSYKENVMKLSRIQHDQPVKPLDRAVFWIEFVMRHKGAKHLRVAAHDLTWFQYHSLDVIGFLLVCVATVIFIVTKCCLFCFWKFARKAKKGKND

[2] = Cmax in human at 0.5 mg/kg; format: ADME, organism-based; design: dose 0.5 mg/kg; details: in vivo
[3] = biological target: T2, UDP-glucuronosyltransferase 1A1 (Homo sapiens, UniProt P22309); test: Activity of human recombinant UGT1A1 expressed in insect cells assessed as intrinsic clearance for enzyme mediated glucuronidation per mg protein by LC-MS/MS method; format: ADME
T2 sequence (P22309 whole entry): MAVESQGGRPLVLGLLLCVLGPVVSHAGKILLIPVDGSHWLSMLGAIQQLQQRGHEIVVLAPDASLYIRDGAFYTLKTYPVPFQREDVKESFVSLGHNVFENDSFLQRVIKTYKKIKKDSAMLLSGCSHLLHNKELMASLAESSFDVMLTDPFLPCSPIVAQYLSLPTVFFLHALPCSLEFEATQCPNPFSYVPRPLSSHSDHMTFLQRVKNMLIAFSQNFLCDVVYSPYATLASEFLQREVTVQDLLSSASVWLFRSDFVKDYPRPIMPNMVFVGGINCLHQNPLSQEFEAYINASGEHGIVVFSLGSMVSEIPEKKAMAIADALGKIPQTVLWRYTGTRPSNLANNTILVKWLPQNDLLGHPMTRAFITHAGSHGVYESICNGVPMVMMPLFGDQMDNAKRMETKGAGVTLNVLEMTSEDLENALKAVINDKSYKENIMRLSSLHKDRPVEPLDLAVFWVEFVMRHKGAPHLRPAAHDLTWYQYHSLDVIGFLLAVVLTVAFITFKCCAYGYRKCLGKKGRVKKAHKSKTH

[4] = Drug metabolism in human liver microsomes assessed as drug glucuronidation in absence of BSA by LC-MS/MS method; format: ADME
Liver microsome [5] = test: Drug metabolism in human liver microsomes assessed as drug glucuronidation in presence of 5 to 35 uM androsterone by LC-MS/MS method; format: ADME
[6] = Drug metabolism in human kidney microsomes assessed as drug glucuronidation in presence of 5 to 35 uM androsterone by LC-MS/MS method; format: ADME
Liver microsome [7] = test: Drug metabolism in human liver microsomes assessed as drug glucuronidation in presence of 100 to 1000 uM propofol by LC-MS/MS method; format: ADME
[8] = Drug metabolism in human kidney microsomes assessed as drug glucuronidation in presence of 100 to 1000 uM propofol by LC-MS/MS method; format: ADME
[9] = biological target: T3, UDP-glucuronosyltransferase 1A7 (Homo sapiens, UniProt Q9HAW7); test: Activity of human recombinant UGT1A7 expressed in insect cells assessed as enzyme mediated glucuronidation at 500 uM by LC-MS/MS method; format: ADME
T3 sequence (Q9HAW7 whole entry): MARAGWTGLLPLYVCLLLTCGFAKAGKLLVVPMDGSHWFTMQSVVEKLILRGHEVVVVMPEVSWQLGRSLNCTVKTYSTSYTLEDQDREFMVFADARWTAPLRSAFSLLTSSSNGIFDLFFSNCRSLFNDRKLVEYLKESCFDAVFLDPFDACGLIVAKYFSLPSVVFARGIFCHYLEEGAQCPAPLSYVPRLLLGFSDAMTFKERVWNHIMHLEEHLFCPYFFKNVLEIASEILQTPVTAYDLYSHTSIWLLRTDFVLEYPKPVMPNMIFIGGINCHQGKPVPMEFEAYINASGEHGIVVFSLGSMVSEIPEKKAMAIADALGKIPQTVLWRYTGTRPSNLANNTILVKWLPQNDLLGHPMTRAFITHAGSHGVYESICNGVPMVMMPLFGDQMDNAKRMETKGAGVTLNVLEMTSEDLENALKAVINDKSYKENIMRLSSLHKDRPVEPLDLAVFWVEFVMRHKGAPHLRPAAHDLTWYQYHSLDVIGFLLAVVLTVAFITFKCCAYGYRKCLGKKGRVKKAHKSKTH

[10] = biological target: T3, UDP-glucuronosyltransferase 1A7; test: Activity of human recombinant UGT1A7 expressed in insect cells assessed as enzyme mediated glucuronidation at 12.5 uM by LC-MS/MS method; format: ADME
[11] = biological target: T4, UDP-glucuronosyltransferase 1A6 (Homo sapiens, UniProt P19224); test: Activity of human recombinant UGT1A6 expressed in insect cells assessed as enzyme mediated glucuronidation at 12.5 uM by LC-MS/MS method; format: ADME
T4 sequence (P19224 whole entry): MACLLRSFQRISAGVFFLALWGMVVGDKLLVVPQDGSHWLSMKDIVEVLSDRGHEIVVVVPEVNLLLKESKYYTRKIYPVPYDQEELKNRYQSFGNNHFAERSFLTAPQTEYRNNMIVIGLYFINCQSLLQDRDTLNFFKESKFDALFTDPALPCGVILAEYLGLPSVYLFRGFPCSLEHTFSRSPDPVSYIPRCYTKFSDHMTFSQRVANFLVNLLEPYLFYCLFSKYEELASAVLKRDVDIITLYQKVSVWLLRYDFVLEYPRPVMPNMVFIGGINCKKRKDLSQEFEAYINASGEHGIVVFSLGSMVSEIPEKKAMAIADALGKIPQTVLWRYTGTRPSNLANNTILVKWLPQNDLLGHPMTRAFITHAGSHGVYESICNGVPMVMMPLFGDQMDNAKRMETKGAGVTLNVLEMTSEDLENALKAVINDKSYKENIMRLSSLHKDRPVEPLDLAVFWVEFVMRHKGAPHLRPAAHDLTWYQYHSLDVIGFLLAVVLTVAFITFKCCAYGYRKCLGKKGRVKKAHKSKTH

Liver microsome [12] = test: Drug metabolism in human liver microsomes assessed as intrinsic clearance for drug glucuronidation per mg tissue in presence of BSA by LC-MS/MS method; format: ADME
Liver microsome [13] = test: Drug metabolism in human liver microsomes assessed as drug glucuronidation per mg tissue in absence of BSA by LC-MS/MS method; format: ADME
Liver microsome [14] = test: Drug metabolism in human liver microsomes assessed as drug glucuronidation per mg tissue in presence of BSA by LC-MS/MS method; format: ADME

In the case of `CC1=NN(c2ccccc2)C(=O)C1` [EDARAVONE], the Drug metabolism [1] is reported as “metabolite_detected”, the Cmax [2] is reported as 6 µM and the CL(high) [3] is reported as 0.2 µL/min/mg. For the same compound, the Km ([4]; read-out: KmH) was 36.7 µM, the Km ([4]; read-out: KmL) was 5880 µM and the Drug metabolism (Liver microsome [5]) was “metabolite_detected”. For the same compound, the Drug metabolism [6] was “metabolite_detected”, the Drug metabolism (Liver microsome [7]) was “metabolite_not_detected” and the Drug metabolism [8] was “metabolite_not_detected”. For the same compound, the Drug metabolism [9] was “metabolite_detected”, the Drug metabolism [10] was “metabolite_detected” and the Drug metabolism [11] was “metabolite_detected”. For the same compound, the CLHH (Liver microsome [12]) was 16.4 µL/min/g, the CLHL (Liver microsome [12]) was 3.7 µL/min/mg and the VmaxH (Liver microsome [13]) was 309.4 pmol/min/g. For the same compound, the VmaxL (Liver microsome [13]) was 7429 pmol/min/g, the VmaxH (Liver microsome [14]) was 137.9 pmol/min/g and the VmaxL (Liver microsome [14]) was 4904 pmol/min/g.

— ChEMBL document CHEMBL3526061, “Glucuronidation of edaravone by human liver and kidney microsomes: biphasic kinetics and identification of UGT1A9 as the major UDP-glucuronosyltransferase isoform” (Drug Metab Dispos, 2012)
